*1 amine or outer side, *2 acyl side, *3 side chain or, on linkers, in order; H or OH if unused. Where a SMILES comes first, the peptide text is derived from it. Bridges are numbered along the chain shown (N, C = ends). Roman numbers before positions name the chains, in order. [ ]: non-standard residue; d: D form. Actinocin(1to9) = Cc1c2oc3c(C)ccc(C(=O)[*:2])c3nc-2c(C(=O)[*:1])c(N)c1=O; NMeV = CN[C@H](C(=O)O)C(C)C; Sar = CNCC(=O)O
Assays:
[1] = target: T1, B2 bradykinin receptor (Homo sapiens, UniProt P30411); format: cell membranes, Membrane; details: chem-1; note: in other assays of this panel Not Active means under 50% inhibition at 10 µM
T1 sequence (P30411 whole entry): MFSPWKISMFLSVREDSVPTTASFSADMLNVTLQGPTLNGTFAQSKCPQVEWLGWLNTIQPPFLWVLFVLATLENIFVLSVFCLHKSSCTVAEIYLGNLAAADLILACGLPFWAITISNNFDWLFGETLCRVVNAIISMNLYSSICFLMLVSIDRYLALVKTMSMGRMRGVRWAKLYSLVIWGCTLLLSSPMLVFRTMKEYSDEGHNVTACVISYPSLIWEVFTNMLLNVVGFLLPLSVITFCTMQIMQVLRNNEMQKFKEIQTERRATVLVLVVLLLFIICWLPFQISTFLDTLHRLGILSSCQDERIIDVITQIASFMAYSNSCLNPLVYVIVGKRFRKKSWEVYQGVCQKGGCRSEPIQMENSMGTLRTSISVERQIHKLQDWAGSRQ

[2] = target: Histamine H2 receptor (Homo sapiens, UniProt P25021); format: cell membranes, CHO-K1, Membrane; details: cho-k1; note: in other assays of this panel Not Active means under 50% inhibition at 10 µM
Sequence of Histamine H2 receptor (P25021 whole entry): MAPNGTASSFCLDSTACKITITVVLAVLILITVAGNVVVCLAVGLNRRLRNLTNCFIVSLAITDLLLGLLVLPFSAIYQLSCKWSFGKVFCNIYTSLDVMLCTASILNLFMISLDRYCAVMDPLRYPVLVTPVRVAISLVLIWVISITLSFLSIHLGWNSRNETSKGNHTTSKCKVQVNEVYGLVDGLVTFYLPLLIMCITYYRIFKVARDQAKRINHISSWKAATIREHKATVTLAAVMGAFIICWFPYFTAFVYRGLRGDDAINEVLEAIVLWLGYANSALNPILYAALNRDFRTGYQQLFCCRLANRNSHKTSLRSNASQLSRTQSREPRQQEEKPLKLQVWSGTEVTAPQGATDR

[3] = target: T2, Neutrophil elastase (Homo sapiens, UniProt P08246); format: tissue-based;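 note: inhibition of neutrophil elastase enzyme activity, measured with a p-nitroanilide-linked peptide substrate; in other assays of this panel Not Active means under 50% inhibition at 10 µM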
T2 sequence (P08246 whole entry): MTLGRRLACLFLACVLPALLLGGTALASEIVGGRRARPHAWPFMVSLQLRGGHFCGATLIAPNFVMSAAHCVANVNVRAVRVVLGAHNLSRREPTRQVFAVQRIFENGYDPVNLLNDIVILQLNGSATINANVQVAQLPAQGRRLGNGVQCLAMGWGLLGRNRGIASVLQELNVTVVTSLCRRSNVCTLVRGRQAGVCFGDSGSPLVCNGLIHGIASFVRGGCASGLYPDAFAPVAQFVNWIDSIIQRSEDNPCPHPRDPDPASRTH

[4] = target: T3, D(4) dopamine receptor (Homo sapiens, UniProt P21917); test: DRUGMATRIX: Dopamine D4.2 radioligand binding (ligand: [3H] Spiperone); format: cell membranes, CHO-K1, Membrane; details: cho-k1; Not Active = under 50% inhibition at 10 µM
T3 sequence (P21917 whole entry): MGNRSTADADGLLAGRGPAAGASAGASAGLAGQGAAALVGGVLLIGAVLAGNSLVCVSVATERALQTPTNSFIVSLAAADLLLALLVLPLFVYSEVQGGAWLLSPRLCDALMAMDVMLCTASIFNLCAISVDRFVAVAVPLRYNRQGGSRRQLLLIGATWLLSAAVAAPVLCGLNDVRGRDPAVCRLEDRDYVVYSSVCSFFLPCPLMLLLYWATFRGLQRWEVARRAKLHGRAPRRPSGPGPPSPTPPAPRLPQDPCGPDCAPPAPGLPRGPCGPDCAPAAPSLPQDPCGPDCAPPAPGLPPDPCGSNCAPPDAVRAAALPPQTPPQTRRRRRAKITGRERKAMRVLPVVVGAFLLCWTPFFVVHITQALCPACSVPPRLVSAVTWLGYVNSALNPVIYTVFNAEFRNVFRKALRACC

[5] = target: T4, Substance-K receptor (Homo sapiens, UniProt P21452); format: cell membranes, CHO, Membrane; details: cho; note: in other assays of this panel Not Active means under 50% inhibition at 10 µM
T4 sequence (P21452 whole entry): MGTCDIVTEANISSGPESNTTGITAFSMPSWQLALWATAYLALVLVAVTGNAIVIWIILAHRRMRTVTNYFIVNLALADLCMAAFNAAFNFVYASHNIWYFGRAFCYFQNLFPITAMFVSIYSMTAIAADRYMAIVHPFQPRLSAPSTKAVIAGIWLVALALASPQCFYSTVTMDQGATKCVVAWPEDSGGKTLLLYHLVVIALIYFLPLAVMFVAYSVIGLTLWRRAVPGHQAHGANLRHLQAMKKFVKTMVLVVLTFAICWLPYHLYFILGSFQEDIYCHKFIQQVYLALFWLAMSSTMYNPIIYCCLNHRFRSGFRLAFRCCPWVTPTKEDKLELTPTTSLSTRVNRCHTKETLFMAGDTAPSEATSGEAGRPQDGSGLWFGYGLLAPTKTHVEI

[6] = DRUGMATRIX: GABAA, Muscimol, Central radioligand binding (ligand: [3H] Muscimol); format: cell membranes, Rattus norvegicus, Wistar, Brain, Membrane; details: Not Active = under 50% inhibition at 10 µM
[7] = target: Voltage-gated inwardly rectifying potassium channel KCNH2 (Homo sapiens, UniProt Q12809); details: hek293; note: in other assays of this panel Not Active means under 50% inhibition at 10 µM
Sequence of Voltage-gated inwardly rectifying potassium channel KCNH2 (Q12809 whole entry): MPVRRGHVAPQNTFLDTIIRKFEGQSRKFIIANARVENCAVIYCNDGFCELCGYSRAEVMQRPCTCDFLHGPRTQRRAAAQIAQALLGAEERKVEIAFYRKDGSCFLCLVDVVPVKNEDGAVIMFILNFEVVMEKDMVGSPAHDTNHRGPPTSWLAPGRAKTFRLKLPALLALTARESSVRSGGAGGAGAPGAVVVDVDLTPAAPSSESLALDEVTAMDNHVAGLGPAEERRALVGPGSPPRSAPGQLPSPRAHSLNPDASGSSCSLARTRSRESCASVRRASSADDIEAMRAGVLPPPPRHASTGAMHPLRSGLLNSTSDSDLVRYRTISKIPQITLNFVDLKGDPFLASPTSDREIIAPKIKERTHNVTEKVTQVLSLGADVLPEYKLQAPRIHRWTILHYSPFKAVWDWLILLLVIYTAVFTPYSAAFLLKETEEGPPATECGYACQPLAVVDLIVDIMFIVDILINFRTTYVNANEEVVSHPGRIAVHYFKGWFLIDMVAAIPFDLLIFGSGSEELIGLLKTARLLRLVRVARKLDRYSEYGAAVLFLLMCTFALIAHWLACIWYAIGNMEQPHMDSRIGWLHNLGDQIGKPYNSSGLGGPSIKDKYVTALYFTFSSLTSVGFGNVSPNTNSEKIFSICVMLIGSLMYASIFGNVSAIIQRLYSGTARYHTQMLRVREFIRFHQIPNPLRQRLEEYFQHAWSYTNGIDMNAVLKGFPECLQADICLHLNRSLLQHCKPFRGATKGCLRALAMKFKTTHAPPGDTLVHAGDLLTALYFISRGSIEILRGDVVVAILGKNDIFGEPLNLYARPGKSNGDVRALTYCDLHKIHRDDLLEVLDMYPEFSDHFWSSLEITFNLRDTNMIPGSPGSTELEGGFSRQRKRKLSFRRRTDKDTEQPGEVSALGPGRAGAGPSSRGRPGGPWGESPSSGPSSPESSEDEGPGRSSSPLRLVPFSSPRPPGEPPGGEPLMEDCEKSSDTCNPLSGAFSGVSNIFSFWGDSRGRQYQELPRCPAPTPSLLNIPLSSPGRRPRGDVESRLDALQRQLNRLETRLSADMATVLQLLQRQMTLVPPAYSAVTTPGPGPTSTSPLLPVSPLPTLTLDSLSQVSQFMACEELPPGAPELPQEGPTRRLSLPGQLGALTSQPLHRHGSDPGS

Cc1c2oc3c(C)ccc(C(=O)N[C@@H]4C(=O)N[C@H](C(C)C)C(=O)N5CCC[C@H]5C(=O)N(C)CC(=O)N(C)[C@@H](C(C)C)C(=O)O[C@@H]4C)c3nc-2c(C(=O)N[C@@H]2C(=O)N[C@H](C(C)C)C(=O)N3CCC[C@H]3C(=O)N(C)CC(=O)N(C)[C@@H](C(C)C)C(=O)O[C@@H]2C)c(N)c1=O [DACTINOMYCIN] (I: T[dV]P[Sar][NMeV] / II: T[dV]P[Sar][NMeV]; ester I:1-I:C, II:1-II:C; linker I:N-II:N via Actinocin(1to9))
Not Active: IC50 [1] | IC50 [2] | IC50 [3] | IC50 [4] | IC50 [5] | IC50 [6] | Ki [6] | IC50 [7] | Ki [7]

NCCCCCC(=O)O [AMINOCAPROIC ACID]
Not Active: IC50 [1] | IC50 [2] | IC50 [3] | IC50 [4] | IC50 [5] | IC50 [6] | Ki [6] | IC50 [7] | Ki [7]

c1ccc(Nc2ccc(Nc3ccccc3)cc2)cc1
Not Active: IC50 [1] | IC50 [2] | IC50 [3] | IC50 [4] | IC50 [5] | IC50 [6] | Ki [6] | IC50 [7] | Ki [7]

NC(=O)N1c2ccccc2CCc2ccccc21
Not Active: IC50 [1] | IC50 [2] | IC50 [3] | IC50 [4] | IC50 [5] | IC50 [6] | Ki [6] | IC50 [7] | Ki [7]

Cc1ccc(-c2cc(C(F)(F)F)nn2-c2ccc(S(N)(=O)=O)cc2)cc1 [CELECOXIB]
Not Active: IC50 [1] | IC50 [2] | IC50 [3] | IC50 [4] | IC50 [5] | IC50 [6] | Ki [6] | IC50 [7] | Ki [7]

Cc1onc(-c2ccccc2Cl)c1C(=O)N[C@@H]1C(=O)N2[C@@H]1SC(C)(C)[C@@H]2C(=O)O [CLOXACILLIN]
Not Active: IC50 [1] | IC50 [2] | IC50 [3] | IC50 [4] | IC50 [5] | IC50 [6] | Ki [6] | IC50 [7] | Ki [7]

CCCN1C[C@H](CSC)C[C@@H]2c3cccc4[nH]cc(c34)C[C@H]21 [PERGOLIDE]
Not Active: IC50 [1] | IC50 [2] | IC50 [3] | IC50 [4] | IC50 [5] | IC50 [6] | Ki [6] | IC50 [7] | Ki [7]

LIPOPOLYSACCHARIDE E. COLI O55:B5
Not Active: IC50 [1] | Ki [1] | IC50 [2] | Ki [2] | IC50 [3] | Ki [3] | IC50 [4] | Ki [4] | IC50 [5] | Ki [5] | IC50 [6] | Ki [6] | IC50 [7] | Ki [7]

CC(O)CO (centres undefined) [PROPYLENE GLYCOL]
Not Active: IC50 [1] | IC50 [2] | IC50 [3] | IC50 [4] | IC50 [5] | IC50 [6] | Ki [6] | IC50 [7] | Ki [7]

CC(C)C(Br)C(=O)NC(N)=O (centres undefined) [BROMISOVALUM]
Not Active: IC50 [1] | IC50 [2] | IC50 [3] | IC50 [4] | IC50 [5] | IC50 [6] | Ki [6] | IC50 [7] | Ki [7]

CCC(C)n1ncn(-c2ccc(N3CCN(c4ccc(OCC5COC(Cn6cncn6)(c6ccc(Cl)cc6Cl)O5)cc4)CC3)cc2)c1=O (centres undefined) [ITRACONAZOLE]
Not Active: IC50 [1] | IC50 [2] | IC50 [3] | IC50 [4] | IC50 [5] | IC50 [6] | Ki [6] | IC50 [7] | Ki [7]

Nc1c(Br)cc(Br)cc1CN[C@H]1CC[C@H](O)CC1 [AMBROXOL]
Not Active: IC50 [1] | IC50 [2] | IC50 [3] | IC50 [4] | IC50 [5] | IC50 [6] | Ki [6] | IC50 [7] | Ki [7]

CC(C)(C)NCC(O)c1cc(Cl)c(N)c(Cl)c1 (centres undefined) [CLENBUTEROL]
Not Active: IC50 [1] | IC50 [2] | IC50 [3] | IC50 [4] | IC50 [5] | IC50 [6] | Ki [6] | IC50 [7] | Ki [7]

C[C@](N)(Cc1ccc(O)c(O)c1)C(=O)O [METHYLDOPA]
Not Active: IC50 [1] | IC50 [2] | IC50 [3] | IC50 [4] | IC50 [5] | IC50 [6] | Ki [6] | IC50 [7] | Ki [7]

Cc1ccccc1N1C(=O)c2cc(S(N)(=O)=O)c(Cl)cc2NC1C (centres undefined) [METOLAZONE]
Not Active: IC50 [1] | IC50 [2] | IC50 [3] | IC50 [4] | IC50 [5] | IC50 [6] | Ki [6] | IC50 [7] | Ki [7]

Nc1nc2c(ncn2CCC(CO)CO)c(=O)[nH]1 [PENCICLOVIR]
Not Active: IC50 [1] | IC50 [2] | IC50 [3] | IC50 [4] | IC50 [5] | IC50 [6] | Ki [6] | IC50 [7] | Ki [7]

Source: ChEMBL document CHEMBL1909046, “DrugMatrix in vitro pharmacology data”
